The record followed here is patent US20120303115A1 (priority 2011, published 2012).

How the values of data set [1] were obtained:
Table 9, shown below, summarizes a number of injectable liquid formulations of paclitaxel utilizing combinations of ethanol, PEG 400 and water. Specifically, the formulations set forth in Table 9 were made and analyzed for their concentrations of its various constituents. The concentrations are determined by liquid chromatography and are presented as weight by volume figures. The concentration of ethanol is preferably two or less percent so as to avoid ethanol becoming an active ingredient in the formulation.
Another aqueous liquid or injectable formulation of paclitaxel is made utilizing ethanol, PEG 400 and water, and ethanol, Vitamin E TPGS, PEG400 and water. In making the first formulation, 100 mg of paclitaxel is added to 400 μl of ethanol in a pre-weighed 20 ml scintillation vial. The mixture of paclitaxel and ethanol is vortexed and heated in a 60 degree C. bath for ten minutes. Once the drug is completely solubilized, 20 ml of PEG 400 is then added to make the final paclitaxel concentration 5 mg/ml. […] In a separate experiment, a series of 20 ml scintillation vials containing Vitamin E TPGS are heated or warmed up in a 50 degree C. water bath for ten minutes. Concurrently, distilled water is also warmed in a 50 degree C. water bath. […]

Data set [2] in a line: Drug concentration in liquid formulations by liquid chromatography. Format: physicochemical. To be noted: water, Vitamin E TPGS as excipient, ethanol less than two percent. Here is the method: Table 7, shown below, summarizes the concentrations of the excipient, the co-solvents and the drug for four different liquid formulations.
Another liquid formulation of sirolimus comprises water and ethanol as co-solvents and Vitamin E TPGS as the excipient. The liquid formulation was created utilizing the following process. Two hundred milligrams of sirolimus and two grams of ethanol were added to a pre-weighed twenty milliliter scintillation vial. The vial was vortexed and sonicated until the sirolimus was completely dissolved. Approximately six hundred milligrams of Vitamin E TPGS was then added to the solution of ethanol and sirolimus. The vial was vortexed again until a clear yellowish solution was obtained. Nitrogen gas was then used to reduce the amount of ethanol in the vial to approximately two hundred twenty-nine milligrams. In a separate vial, three hundred milligrams of Vitamin E TPGS was dissolved in eleven milliliters of purified water while undergoing vortexing. The Vitamin E TPGS and water solution was then added to the first vial containing the sirolimus, Vitamin E TPGS and ethanol. The first vial was then vortexed vigorously and continuously for three minutes. […] The foam gradually disappeared after sitting at room temperature.
An aqueous formulation of CCl-779, a sirolimus analog, is prepared utilizing ethanol, Vitamin E TPGS and water. […]

A short description of data set [3]: Percent drug content change of coated cobalt-chromium stent, 0 to 12 weeks (FIG. 1). To be noted: 0.02 weight percent BHT per total basecoat solids; sirolimus and polymer on 18 mm stent; 8 weeks and 12 weeks, ambient conditions (25° C.). The data set is classed as physicochemical. The text has this:
Referring to FIG. 1, there is illustrated in graphical format, the results of the same drug screening as described above with the solution applied to a cobalt-chromium, 18 mm stent. In this test, two sets of solution samples were utilized, one with sirolimus and polymer solution containing the antioxidant and one with sirolimus and polymer solution containing no antioxidant. The antioxidant utilized was 0.02 weight percent BHT per total basecoat solids. The test was utilized to determine the percent drug content change over a time period of 0 to 12 weeks under two conditions; namely, 40° C. with 75 percent relative humidity, and ambient conditions (25° C.).

Take `CC(=O)O[C@H]1C(=O)[C@@]2(C)[C@H]([C@H](OC(=O)c3ccccc3)[C@]3(O)C[C@H](OC(=O)[C@H](O)[C@@H](NC(=O)c4ccccc4)c4ccccc4)C(C)=C1C3(C)C)[C@]1(OC(C)=O)CO[C@@H]1C[C@@H]2O` [paclitaxel]: in data set [1], the “concentration relative to the solubility of paclitaxel in water” value was “about 1000 fold” and the “paclitaxel concentration of true aqueous liquid formulations” value was “up to 2.5 mg/ml”. CCl-779: the “concentration in the final solution (HPLC assay)” value in data set [2] is 15000 µg/mL. `Cc1cc(C(C)(C)C)c(O)c(C(C)(C)C)c1` [BHT, butylated hydroxytoluene]: in data set [3], the “drug degradation (percent drug content change)” value was “lessens drug degradation”.
